From patent US12037345B2, “Heterobicyclic compounds for inhibiting the activity of SHP2” (TAIHO PHARMACEUTICAL CO., LTD., priority 2018, dated 2024)
Where two headings read alike, the source gives them in different places.

Experiments:
SHP2 = SHP2 (Homo sapiens (Human), UniProt Q06124); assay: SHP2 Biochemical Assay (DiFMUP conversion, pIRS1-activated); settings: Table 19; head prints unit as "-M"
In short: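 Human SHP2 (10 pM) pre-incubated 30 min with compound and […] pIRS1 activating peptide, then 50 μM DiFMUP added; buffer 25 mM Bis-Tris propane pH 7.0, 150 mM NaCl, 5% DMSO. Fluorescence rate (ex 360/em 450 nm) over 30 min; IC50 by four-parameter fit, averaged across experiments.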

[1] = test system: pERK (phospho-p44/42 ERK) in HCC827 cells; assay: Cellular pERK Inhibition Assay, Method A (In-Cell Western); format: cell-based; settings: Table 19, head prints unit as "-M", read-out: pERK (IC50) Method A
In short: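 HCC827 cells in RPMI/10% FBS were treated with compounds in serum-free medium (0.2% DMSO final) at 37 °C for the indicated time, in quadruplicate. Fixed cells were immunostained for phospho-p44/42 ERK and read by infrared imaging. Blank-subtracted signal was expressed as % of DMSO control; IC50 from four-parameter logistic fit, averaged across experiments.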

SHP2, sequence (Q06124 whole entry): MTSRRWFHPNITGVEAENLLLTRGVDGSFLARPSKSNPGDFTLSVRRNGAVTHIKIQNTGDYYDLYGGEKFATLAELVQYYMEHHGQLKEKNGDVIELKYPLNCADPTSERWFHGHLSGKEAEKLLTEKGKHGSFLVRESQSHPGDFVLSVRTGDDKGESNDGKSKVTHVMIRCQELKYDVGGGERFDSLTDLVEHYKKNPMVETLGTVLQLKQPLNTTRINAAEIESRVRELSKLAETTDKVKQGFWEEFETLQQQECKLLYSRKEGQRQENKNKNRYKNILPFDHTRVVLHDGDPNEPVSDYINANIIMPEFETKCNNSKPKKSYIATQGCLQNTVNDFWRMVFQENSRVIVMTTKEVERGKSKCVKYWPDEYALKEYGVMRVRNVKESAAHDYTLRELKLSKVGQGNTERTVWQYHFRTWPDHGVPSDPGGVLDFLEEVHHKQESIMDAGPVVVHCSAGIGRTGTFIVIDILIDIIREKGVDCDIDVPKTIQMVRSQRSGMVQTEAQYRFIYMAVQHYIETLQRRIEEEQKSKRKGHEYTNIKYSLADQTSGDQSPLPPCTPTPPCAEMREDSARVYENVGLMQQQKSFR

Structure (SMILES) | IC50 (SHP2) | IC50 ([1]; Homo sapiens) | IC50 [1]
Cn1cc2cc(-c3c[nH]c4nc(N5[C@@H]6CC[C@H]5C[C@@H](N)C6)n(C)c(=O)c34)c(F)cc2n1 [Example 72, 2-(endo-3-amino-8-azabicyclo[3.2.1]octan-8-yl)-5-(6-fluoro-2-methyl-2H-indazol-5-yl)-3-methyl-3,7-dihydro-4H-pyrrolo[2,3-d]pyrimidin-4-one] | 99 nM | 1900 nM | 
COc1c(-c2c[nH]c3nc(N4C5CCC4CC(N)C5)n(C)c(=O)c23)ccc2nn(C)cc12 (stereo not drawn) [Example 73, 2-(endo-3-amino-8-azabicyclo[3.2.1]octan-8-yl)-5-(4-methoxy-2-methyl-2H-indazol-5-yl)-3-methyl-3,7-dihydro-4H-pyrrolo[2,3-d]pyrimidin-4-one] | 870 nM |  | > 10000 nM
Cn1c(N2[C@@H]3CC[C@H]2C[C@@H](N)C3)nc2[nH]cc(-c3ccc4nnn(C)c4c3Cl)c2c1=O [Example 74, 2-(endo-3-amino-8-azabicyclo[3.2.1]octan-8-yl)-5-(7-chloro-1-methyl-1H-benzo[d][1,2,3]triazol-6-yl)-3-methyl-3,7-dihydro-4H-pyrrolo[2,3-d]pyrimidin-4-one] | 170 nM | 5400 nM | 
Cn1c(N2[C@@H]3CC[C@H]2C[C@@H](N)C3)nc2[nH]cc(-c3ccc4nn(CC(C)(C)O)cc4c3Cl)c2c1=O [Example 75, 2-(endo-3-amino-8-azabicyclo[3.2.1]octan-8-yl)-5-(4-chloro-2-(2-hydroxy-2-methylpropyl)-2H-indazol-5-yl)-3-methyl-3,7-dihydro-4H-pyrrolo[2,3-d]pyrimidin-4-one] | 28 nM | 2100 nM | 
Cc1cc(-c2c[nH]c3nc(N4[C@@H]5CC[C@H]4C[C@@H](N)C5)n(C)c(=O)c23)c(Cl)c2cn(C)nc12 [Example 76, 2-(endo-3-amino-8-azabicyclo[3.2.1]octan-8-yl)-5-(4-chloro-2,7-dimethyl-2H-indazol-5-yl)-3-methyl-3,7-dihydro-4H-pyrrolo[2,3-d]pyrimidin-4-one] | 31 nM | 180 nM | 
Cn1c(N2[C@@H]3CC[C@H]2C[C@@H](N)C3)nc2[nH]cc(-c3ccc4[nH]ncc4c3Cl)c2c1=O [Example 77] | 40 nM | 1900 nM | 
Cn1nc2ccc(-c3c[nH]c4nc(N5[C@@H]6CC[C@H]5C[C@@H](N)C6)n(C)c(=O)c34)c(Cl)c2c1Cl [Example 78, 2-(endo-3-amino-8-azabicyclo[3.2.1]octan-8-yl)-5-(3,4-dichloro-2-methyl-2H-indazol-5-yl)-3-methyl-3,7-dihydro-4H-pyrrolo[2,3-d]pyrimidin-4-one] | 6 nM | 130 nM | 
Cn1nc2ccc(-c3c[nH]c4nc(N5[C@@H]6CC[C@H]5C[C@@](C)(N)C6)n(C)c(=O)c34)c(Cl)c2c1Cl [Example 79, 2-(endo-3-amino-3-methyl-8-azabicyclo[3.2.1]octan-8-yl)-5-(3,4-dichloro-2-methyl-2H-indazol-5-yl)-3-methyl-3,7-dihydro-4H-pyrrolo[2,3-d]pyrimidin-4-one] | 5.5 nM | 160 nM | 
Cn1nc2ccc(-c3c[nH]c4nc(N5CC6COCC(C5)N6)n(C)c(=O)c34)c(Cl)c2c1Cl [Example 80, 2-(3-oxa-7,9-diazabicyclo[3.3.1]nonan-7-yl)-5-(3,4-dichloro-2-methyl-2H-indazol-5-yl)-3-methyl-3,7-dihydro-4H-pyrrolo[2,3-d]pyrimidin-4-one] | 11 nM | 270 nM | 
Cc1nc2ccc(-c3c[nH]c4nc(N5CC6COCC(C5)N6)n(C)c(=O)c34)c(Cl)c2s1 [Example 81, 2-(3-oxa-7,9-diazabicyclo[3.3.1]nonan-7-yl)-5-(7-chloro-2-methylbenzo[d]thiazol-6-yl)-3-methyl-3,7-dihydro-4H-pyrrolo[2,3-d]pyrimidin-4-one] | 14 nM | 780 nM | 
CN(C)C(=O)Cn1nc2ccc(-c3c[nH]c4nc(N5C6CCCC5CNC6)n(C)c(=O)c34)c(Cl)c2c1Cl [Example 82, 2-(5-(2-(3,9-diazabicyclo[3.3.1]nonan-9-yl)-3-methyl-4-oxo-4,7-dihydro-3H-pyrrolo[2,3-d]pyrimidin-5-yl)-3,4-dichloro-2H-indazol-2-yl)-N,N-dimethylacetamide] | 14 nM | 910 nM | 
CN(C)C(=O)CCn1nc2ccc(-c3c[nH]c4nc(N5C6CCCC5CNC6)n(C)c(=O)c34)c(Cl)c2c1Cl [Example 83, 3-(5-(2-(3,9-diazabicyclo[3.3.1]nonan-9-yl)-3-methyl-4-oxo-4,7-dihydro-3H-pyrrolo[2,3-d]pyrimidin-5-yl)-3,4-dichloro-2H-indazol-2-yl)-N,N-dimethylpropanamide] | 11 nM | 190 nM | 
CN(C)C(=O)Cc1nc2ccc(-c3c[nH]c4nc(N5C6CCCC5CNC6)n(C)c(=O)c34)c(Cl)c2s1 [Example 84, 2-(6-(2-(3,9-diazabicyclo[3.3.1]nonan-9-yl)-3-methyl-4-oxo-4,7-dihydro-3H-pyrrolo[2,3-d]pyrimidin-5-yl)-7-chlorobenzo[d]thiazol-2-yl)-N,N-dimethylacetamide] | 18 nM | 550 nM | 
Cn1cc2c(Cl)c(-c3c[nH]c4nc(N5C6CNCC5COC6)n(C)c(=O)c34)ccc2n1 [Example 85, 2-(3-oxa-7,9-diazabicyclo[3.3.1]nonan-9-yl)-5-(4-chloro-2-methyl-2H-indazol-5-yl)-3-methyl-3,7-dihydro-4H-pyrrolo[2,3-d]pyrimidin-4-one] | 13 nM | 640 nM | 
CN(C)C(=O)Cn1cc2c(Cl)c(-c3c[nH]c4nc(N5C6CCC5CNC6)n(C)c(=O)c34)ccc2n1 [Example 86, 2-(5-(2-(3,8-diazabicyclo[3.2.1]octan-8-yl)-3-methyl-4-oxo-4,7-dihydro-3H-pyrrolo[2,3-d]pyrimidin-5-yl)-4-chloro-2H-indazol-2-yl)-N,N-dimethylacetamide] | 59 nM | 5200 nM | 
Cn1nc2ccc(-c3c[nH]c4nc(N5C6CCC5CNC6)n(C)c(=O)c34)c(Cl)c2n1 [Example 87, 2-(3,8-diazabicyclo[3.2.1]octan-8-yl)-5-(4-chloro-2-methyl-2H-benzo[d][1,2,3]triazol-5-yl)-3-methyl-3,7-dihydro-4H-pyrrolo[2,3-d]pyrimidin-4-one] | 68 nM | 580 nM | 
CN(C)C(=O)CCn1cc2c(Cl)c(-c3c[nH]c4nc(N5C6CCC5CNC6)n(C)c(=O)c34)ccc2n1 [Example 88, 3-(5-(2-(3,8-diazabicyclo[3.2.1]octan-8-yl)-3-methyl-4-oxo-4,7-dihydro-3H-pyrrolo[2,3-d]pyrimidin-5-yl)-4-chloro-2H-indazol-2-yl)-N,N-dimethylpropanamide] | 52 nM | 4500 nM | 
CN(C)C(=O)CCn1nc2ccc(-c3c[nH]c4nc(N5C6CCC5CNC6)n(C)c(=O)c34)c(Cl)c2c1Cl [Example 89, 3-(5-(2-(3,8-diazabicyclo[3.2.1]octan-8-yl)-3-methyl-4-oxo-4,7-dihydro-3H-pyrrolo[2,3-d]pyrimidin-5-yl)-3,4-dichloro-2H-indazol-2-yl)-N,N-dimethylpropanamide] | 14 nM | 540 nM | 
Cc1nc2ccc(-c3c[nH]c4nc(N5C6CCC5CNC6)n(C)c(=O)c34)c(Cl)c2s1 [Example 90, 2-(3,8-diazabicyclo[3.2.1]octan-8-yl)-5-(7-chloro-2-methylbenzo[d]thiazol-6-yl)-3-methyl-3,7-dihydro-4H-pyrrolo[2,3-d]pyrimidin-4-one] | 12 nM | 740 nM | 
CCn1cc2c(Cl)c(-c3c[nH]c4nc(N5C6CCC5CNC6)n(C)c(=O)c34)ccc2n1 [Example 91, 2-(3,8-diazabicyclo[3.2.1]octan-8-yl)-5-(4-chloro-2-ethyl-2H-indazol-5-yl)-3-methyl-3,7-dihydro-4H-pyrrolo[2,3-d]pyrimidin-4-one] | 12 nM | 340 nM | 
Cc1c2c(Cl)c(-c3c[nH]c4nc(N5[C@H]6CC[C@@H]5[C@H](N)C6)n(C)c(=O)c34)ccc2nn1C [Example 94, 2-((1R,2R,4S)-2-amino-7-azabicyclo[2.2.1]heptan-7-yl)-5-(4-chloro-2,3-dimethyl-2H-indazol-5-yl)-3-methyl-3,7-dihydro-4H-pyrrolo[2,3-d]pyrimidin-4-one] | 5 nM | 72 nM | 
Cc1nc2ccc(-c3c[nH]c4nc(N5[C@H]6CC[C@@H]5[C@H](N)C6)n(C)c(=O)c34)c(Cl)c2s1 [Example 95, 2-((1R,2R,4S)-2-amino-7-azabicyclo[2.2.1]heptan-7-yl)-5-(7-chloro-2-methylbenzo[d]thiazol-6-yl)-3-methyl-3,7-dihydro-4H-pyrrolo[2,3-d]pyrimidin-4-one] | 2.5 nM | 68 nM | 
CN[C@@H]1C[C@@H]2CC[C@H]1N2c1nc2[nH]cc(-c3ccc4nn(C)cc4c3Cl)c2c(=O)n1C [Example 97, 5-(4-chloro-2-methyl-2H-indazol-5-yl)-3-methyl-2-((1R,2R,4S)-2-(methylamino)-7-azabicyclo[2.2.1]heptan-7-yl)-3,7-dihydro-4H-pyrrolo[2,3-d]pyrimidin-4-one] | 7.7 nM | 82 nM | 
CCn1cc2c(Cl)c(-c3c[nH]c4nc(N5[C@H]6CC[C@@H]5[C@H](NC)C6)n(C)c(=O)c34)ccc2n1 [Example 98, 5-(4-chloro-2-ethyl-2H-indazol-5-yl)-3-methyl-2-((1R,2R,4S)-2-(methylamino)-7-azabicyclo[2.2.1]heptan-7-yl)-3,7-dihydro-4H-pyrrolo[2,3-d]pyrimidin-4-one] | 10 nM | 190 nM | 
